Source: US10960020B2, “Modulation of PCSK9 and LDLR through DRP1 inhibition” (THE BRIGHAM AND WOMEN'S HOSPITAL, INC., priority 2016, dated 2021)
Entries after “also recorded” stand apart in the source; their conditions may differ.

Experiments:
Assay type in all cases: cell-based, human
[1] = test system: p62; test: Western blot, HepG2 p62 and p (S349) p62; conditions: HepG2, 24 hours; Mdivi-1 50 μmol/L, MG132 0.3 μmol/L
[2] = test system: BCL-XL; test: BCL-XL mRNA and protein, HepG2; conditions: HepG2, Mdivi-1 50 μM, 24 hours
Description: Human cells and mouse liver was homogenized with TriZolTM (Life Technologies, Grand Island, N.Y.) to isolate RNA. QuantiTectTM Reverse Transcription Kit (Qiagen, Hilden, Germany) was used for reverse transcription on total RNA. cDNA was generated using the Quanta gScriptTM cDNA Synthesis Kit (Bioscience Inc., Gaithersburg, Md.). mRNA levels were quantified on a 7900HT real-time PCR system (Thermo Fisher Scientific) using TaqManTM real-time PCR with the following probes: Hs02758991_g1 (human GAPDH); Mm99999915_g1 (mouse Gapdh); Hs00236329 m1 (human BCL2L1); Hs00247147_m1 (human DRP1); Hs00545399_m1 (human PCSK9); Mm01263610_m1 (mouse Pcsk9); Hs00168352_m1 (human HMGCR); […]); Hs00181192_m1 (human LDLR); Mm00440169_m1 (mouse Ldlr); Hs01088691_m1 (human SREBP1); Mm00550338_m1 (mouse Srebp1); Hs00231674_m1 (human SREBP1a); custom primer (human SREBP1c); Hs01081784_m1 (human SREBP2); Mm01306292_m1 (mouse Srebp2); Hs01005622_m1 (human FASN); […]); Hs00167041_m1 (human HNF1A); Mm00493434_m1 (mouse Hnf1a); Hs00171168 (human APOE); Hs01059118_m1 (human ABCA1); Hs01103582_s1 (human JUN). Mouse SREBP-1c was analyzed by SYBERTM green PCR with the following primers: [NT] […] Protein concentrations were determined by the Pierce BCA AssayTM (Thermo Fisher Scientific). […] Protein levels were normalized to β-ACTIN, α-TUBULIN, or LAMIN A/C with the use of NIH ImageJ software for quantification.

[3] = test system: PCSK9 mRNA; test: Real time PCR, HepG2 PCSK9 mRNA; conditions: HepG2, Mdivi-1 50 μM, 24 hours
Description: Human cells and mouse liver was homogenized with TriZolTM (Life Technologies, Grand Island, N.Y.) to isolate RNA. QuantiTectTM Reverse Transcription Kit (Qiagen, Hilden, Germany) was used for reverse transcription on total RNA. cDNA was generated using the Quanta gScriptTM cDNA Synthesis Kit (Bioscience Inc., Gaithersburg, Md.). mRNA levels were quantified on a 7900HT real-time PCR system (Thermo Fisher Scientific) using TaqManTM real-time PCR with the following probes: Hs02758991_g1 (human GAPDH); Mm99999915_g1 (mouse Gapdh); Hs00236329 m1 (human BCL2L1); Hs00247147_m1 (human DRP1); Hs00545399_m1 (human PCSK9); Mm01263610_m1 (mouse Pcsk9); Hs00168352_m1 (human HMGCR); […]); Hs00181192_m1 (human LDLR); Mm00440169_m1 (mouse Ldlr); Hs01088691_m1 (human SREBP1); Mm00550338_m1 (mouse Srebp1); Hs00231674_m1 (human SREBP1a); custom primer (human SREBP1c); Hs01081784_m1 (human SREBP2); Mm01306292_m1 (mouse Srebp2); Hs01005622_m1 (human FASN); […]); Hs00167041_m1 (human HNF1A); Mm00493434_m1 (mouse Hnf1a); Hs00171168 (human APOE); Hs01059118_m1 (human ABCA1); Hs01103582_s1 (human JUN). Mouse SREBP-1c was analyzed by SYBERTM green PCR with the following primers: [NT] All expression levels were normalized to GAPDH using the ΔΔCT method.

COc1cc(-n2c(S)nc3ccccc3c2=O)c(Cl)cc1Cl [Mdivi-1, 3-(2,4-Dichloro-5-methoxyphenyl)-2,3-dihydro-2-thioxo-4(1H)-quinazolinone]
p62 abundance [1]: strongly increased | p62 phosphorylation [1]: increased | BCL-XL abundance (protein) [2]: increased | BCL-XL expression (BCL2L1 mRNA) [2]: increased | Cellular PCSK9 mRNA [3]: reduced; also recorded: strongly reduced
